Measurements from patent US20170107207A1, “AMINOPYRAZOLONE DERIVATIVE” (DAIICHI SANKYO COMPANY, LIMITED, priority 2014, published 2017).
pIC50: −log10 of the molar value.

Key:
[1] = test system: human lymphoma cell line RAMOS cells; test: Cell growth inhibition test using RAMOS cell, MTT assay; format: cell-based; details: 50% growth inhibition concentration
Summary of the method: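 Cells in RPMI1640 with 10% FBS were exposed to compound (DMSO ≤1%) for 3 days at 37° C, 5% CO2. Viability was read by MTT (4 h, formazan in DMSO, OD 540/660 nm) against a day-0 plate; GI50 was interpolated from T/C % growth rates.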

[2] = target: T1, TIP48/TIP49 complex (Homo sapiens, UniProt Q9Y230+Q9Y265); test: ATPase assay of TIP48/TIP49 complex (ADP-Glo); format: biochemical; details: concentration at which the ATPase activity was inhibited by 50%
T1 construct: made in house; host or cells: E. coli
T1 sequence (Q9Y230 whole entry): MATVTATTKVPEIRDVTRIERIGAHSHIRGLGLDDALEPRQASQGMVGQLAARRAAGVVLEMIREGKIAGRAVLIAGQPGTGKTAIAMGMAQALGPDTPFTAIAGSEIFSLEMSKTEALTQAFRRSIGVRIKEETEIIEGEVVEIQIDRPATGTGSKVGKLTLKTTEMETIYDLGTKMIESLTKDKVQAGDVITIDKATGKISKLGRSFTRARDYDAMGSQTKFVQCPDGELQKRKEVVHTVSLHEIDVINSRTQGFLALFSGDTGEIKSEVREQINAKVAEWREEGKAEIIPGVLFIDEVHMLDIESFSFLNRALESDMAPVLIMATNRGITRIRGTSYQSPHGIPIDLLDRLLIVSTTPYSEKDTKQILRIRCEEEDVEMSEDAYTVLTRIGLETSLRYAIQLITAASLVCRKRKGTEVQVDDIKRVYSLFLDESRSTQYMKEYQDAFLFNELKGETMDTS
T1 sequence (Q9Y265 whole entry): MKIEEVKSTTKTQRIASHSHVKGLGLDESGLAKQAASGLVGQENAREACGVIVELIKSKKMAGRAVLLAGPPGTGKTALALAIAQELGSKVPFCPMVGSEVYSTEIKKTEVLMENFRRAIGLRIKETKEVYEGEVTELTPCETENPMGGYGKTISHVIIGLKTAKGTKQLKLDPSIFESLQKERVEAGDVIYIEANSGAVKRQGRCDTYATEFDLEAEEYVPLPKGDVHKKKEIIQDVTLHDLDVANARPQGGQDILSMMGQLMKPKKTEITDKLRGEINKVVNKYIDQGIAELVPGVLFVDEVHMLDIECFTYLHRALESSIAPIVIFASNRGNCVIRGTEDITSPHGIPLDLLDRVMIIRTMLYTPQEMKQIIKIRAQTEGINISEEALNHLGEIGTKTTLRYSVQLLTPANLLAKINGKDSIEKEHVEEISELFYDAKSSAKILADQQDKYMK
Summary of the method: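 Recombinant human TIP48 and TIP49 expressed in E. coli (24.5 μg/mL final) were incubated 1.5 h at room temperature with compound (0.0007–200 μM, 2% DMSO) in Tris-HCl pH 7.5 buffer containing MgCl2 and ATP. ADP formed was detected by ADP-Glo luminescence; inhibition came from dose-response curves.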

[3] = test system: human lymphoma cell line RAMOS cells; test: Cell growth inhibition test using RAMOS cell, ATP assay (CellTiter-Glo); format: cell-based; details: Homo sapiens, Ramos, 72 h, cultured 3 days, 50% growth inhibition concentration
Summary of the method: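 RAMOS cells seeded at 4000 cells/well with compound and cultured 3 days at 37° C, 5% CO2; viability by CellTiter-Glo luminescence. Growth rate T/C % = 100×[(B−C)/(A−C)] using day-0 and final readings; GI50 interpolated from the two concentrations bracketing 50% growth.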

GI50 [1] [nM] | pIC50 [2] | GI50 [3] [nM] | Compound
53 | 7.28 | 150 | CCOc1ccc(Cl)cc1C(=O)NCC(C)(C)CC(=O)Nc1c(CCN(C)C)n(C)n(-c2ccccc2)c1=O [Example 11, 5-Chloro-N-[4-({5-[2-(dimethylamino)ethyl]-1-methyl-3-oxo-2-phenyl-2,3-dihydro-1H-pyrazol-4-yl}amino)-2,2-dimethyl-4-oxobutyl]-2-ethoxybenzamide]
35 | 7.21 | 140 | CCOc1cc(F)c(Cl)cc1C(=O)NCC(C)(C)CC(=O)Nc1c(CCN(C)C)n(C)n(-c2ccccc2)c1=O [Example 12, 5-Chloro-N-[4-({5-[2-(dimethylamino)ethyl]-1-methyl-3-oxo-2-phenyl-2,3-dihydro-1H-pyrazol-4-yl}amino)-2,2-dimethyl-4-oxobutyl]-2-ethoxy-4-fluorobenzamide]
110 | 7.09 | 610 | CCOc1ncc(Cl)cc1C(=O)NCC(C)(C)CC(=O)Nc1c(CCN(C)C)n(C)n(-c2ccccc2)c1=O [Example 13, 5-Chloro-N-[4-({5-[2-(dimethylamino)ethyl]-1-methyl-3-oxo-2-phenyl-2,3-dihydro-1H-pyrazol-4-yl}amino)-2,2-dimethyl-4-oxobutyl]-2-ethoxypyridine-3-carboxamide]
32 | 7.39 | 130 | Cc1cc2cc(Cl)cc(C(=O)NCC(C)(C)CC(=O)Nc3c(CCN(C)C)n(C)n(-c4ccccc4)c3=O)c2o1 [Example 14, 5-Chloro-N-[4-({5-[2-(dimethylamino)ethyl]-1-methyl-3-oxo-2-phenyl-2,3-dihydro-1H-pyrazol-4-yl}amino)-2,2-dimethyl-4-oxobutyl]-2-methylbenzofuran-7-carboxamide]
99 | 7.09 | 240 | CCOc1ccc(Cl)cc1C(=O)NCC(C)(C)CC(=O)Nc1c(CCN(C)CC(F)(F)F)n(C)n(-c2ccccc2)c1=O [Example 39, 5-Chloro-N-{2,2-dimethyl-4-[(1-methyl-5-{2-[methyl(2,2,2-trifluoroethyl)amino]ethyl}-3-oxo-2-phenyl-2,3-dihydro-1H-pyrazol-4-yl)amino]-4-oxobutyl}-2-ethoxybenzamide]
27 | 7.48 | 120 | CCOc1ccc(Cl)cc1C(=O)NCC(C)(C)CC(=O)Nc1c(CCN(C)C)n(CC)n(-c2ccccc2)c1=O [Example 40, 5-Chloro-N-[4-({5-[2-(dimethylamino)ethyl]-1-ethyl-3-oxo-2-phenyl-2,3-dihydro-1H-pyrazol-4-yl}amino)-2,2-dimethyl-4-oxobutyl]-2-ethoxybenzamide]
42 | 7.51 | 140 | CCOc1ccc(Cl)cc1C(=O)NCC(C)(C)CC(=O)Nc1c(COC)n(C)n(-c2ccccc2)c1=O [Example 114, 5-Chloro-2-ethoxy-N-(4-{[5-(methoxymethyl)-1-methyl-3-oxo-2-phenyl-2,3-dihydro-1H-pyrazol-4-yl]amino}-2,2-dimethyl-4-oxobutyl)benzamide]
230 | 7.19 | 640 | CCOc1ncc(Cl)cc1NC(=O)CC(C)(C)CC(=O)Nc1c(COC)n(C)n(-c2ccccc2)c1=O [Example 118, N-(5-Chloro-2-ethoxy-3-pyridine)-N′-[5-(methoxymethyl)-1-methyl-3-oxo-2-phenyl-2,3-dihydro-1H-pyrazol-4-yl]-3,3-dimethylpentanediamide]
110 | 7.09 |  | Cc1cccc(-n2c(=O)c(NC(=O)CC(C)(C)CC(=O)Nc3cc(Cl)ccc3OC(F)(F)F)c(C)n2C)n1 [Example 154, N-[5-Chloro-2-(trifluoromethoxy)phenyl]-N′-[1,5-dimethyl-2-(6-methyl-2-pyridyl)-3-oxo-2,3-dihydro-1H-pyrazol-4-yl]-3,3-dimethylpentanediamide]
59 | 7.23 | 190 | Cc1cccc(-n2c(=O)c(NC(=O)CC(C)(C)CNC(=O)c3cc(Cl)cc4cc(C)oc34)c(C)n2C)n1 [Example 155, 5-Chloro-N-(4-{[1,5-dimethyl-2-(6-methyl-2-pyridyl)-3-oxopyrazol-4-yl]amino}-2,2-dimethyl-4-oxobutyl)-2-methylbenzofuran-7-carboxamide]
100 | 7.32 |  | CCOc1ccc(Cl)cc1C(=O)NCC(C)(C)CC(=O)Nc1c(C)n(C(C)C)n(-c2ccccn2)c1=O [Example 156, 5-Chloro-2-ethoxy-N-(4-{[1-isopropyl-5-methyl-3-oxo-2-(2-pyridyl)pyrazol-4-yl]amino}-2,2-dimethyl-4-oxobutyl)benzamide]
120 | 6.85 | 430 | CCOc1ccc(Cl)cc1C(=O)NCC(C)(C)CC(=O)Nc1c(C)n(C)n(-c2cc(OC)ccn2)c1=O [Example 157, 5-Chloro-2-ethoxy-N-(4-{[1-(4-methoxy-2-pyridyl)-2,3-dimethyl-5-oxopyrazol-4-yl]amino}-2,2-dimethyl-4-oxobutyl)benzamide]
990 | 6.70 |  | COc1ccc(Cl)cc1NC(=O)CC(C)(C)CC(=O)Nc1c(C)n(C)n(C2CCCCC2)c1=O [Example 160, N-(5-Chloro-2-methoxyphenyl)-N′-(1-cyclohexyl-2,3-dimethyl-5-oxopyrazol-4-yl)-3,3-dimethylpentanediamide]
